From the NIST ThermoML archive (doi:10.1021/je200226z)
Numbers after ± are expanded uncertainties.

Test: mn = molality of the nth substance listed, in mol/kg
Details: 298.15 K, 101 kPa, Liquid, Westphal Balance

SMILES	mass density (m1 = 0.02)	mass density (m1 = 0.06)	mass density (m1 = 0.1)	mass density (m1 = 0.15)	mass density (m1 = 0.2)	mass density (m1 = 0.25)	mass density (m1 = 0.05)	mass density (m1 = 0.5)	mass density (m1 = 0.75)	mass density (m1 = 1)
OC[C@H]1O[C@@](CO)(O[C@H]2O[C@H](CO)[C@@H](O)[C@H](O)[C@H]2O)[C@@H](O)[C@@H]1O [D-sucrose] + O	999.72 ± 0.14 kg/m3	1004.87 ± 0.14 kg/m3	1009.9 ± 0.14 kg/m3	1016.06 ± 0.14 kg/m3	1022.12 ± 0.14 kg/m3	1027.95 ± 0.14 kg/m3				
C=CCn1cc[n+](C)c1.[Cl-] [1-allyl-3-methylimidazolium chloride] + O			999 ± 0.14 kg/m3	999.8 ± 0.14 kg/m3		1001.3 ± 0.14 kg/m3	998.1 ± 0.14 kg/m3	1004.8 ± 0.14 kg/m3	1007.8 ± 0.13 kg/m3	1010.3 ± 0.12 kg/m3
